Data: ChEMBL document CHEMBL1129120, “Anti-human immunodeficiency and anti-hepatitis B virus activities of -l-2,3-dideoxy purine nucleosides” (Bioorg Med Chem Lett, 1996)

How the values were obtained:
[1] = Antiviral activity against HIV in human peripheral blood mononuclear cells (PBMC); type: functional
HepG2 [2] = experiment: Concentration required to inhibit 50% of 2.2.15 cell line; type: functional, cell-based; conditions: Homo sapiens
HepG2 [3] = experiment: Antiviral activity against Hepatitis B virus in 2.2.15 cell line; type: functional, cell-based; conditions: Homo sapiens
CCRF-CEM [4] = experiment: Concentration required to inhibit 50% of CEM cell lines; type: functional, cell-based; conditions: Homo sapiens
CCRF-CEM [5] = experiment: Antiviral activity against HIV in CEM cell line; type: functional, cell-based; conditions: Homo sapiens
[6] = Concentration required to inhibit 50% of human peripheral blood mononuclear cells; type: functional

Row | SMILES | EC50 [1] | IC50 (HepG2 [2]) | EC50 (HepG2 [3]) | IC50 (CCRF-CEM [4]) | EC50 (CCRF-CEM [5]) | IC50 [6]
1 | Nc1nc(O)c2ncn([C@@H]3C=C[C@H](CO)O3)c2n1 | 14.1 µM | 50 µM | > 10 µM | > 10 µM | 18.1 µM | > 100 µM
2 | Nc1ncnc2c1ncn2[C@H]1CC[C@@H](CO)O1 (single isomer, unassigned) | 8.2 µM | > 200 µM | 6 µM | – | – | > 100 µM
3 | OC[C@H]1C=C[C@@H](n2cnc3c(O)ncnc32)O1 | 5.5 µM | 50 µM | > 10 µM | – | – | 60 µM
4 | Nc1ncnc2c1ncn2[C@H]1C=C[C@@H](CO)O1 (single isomer, unassigned) | 0.38 µM | 70 µM | 1.2 µM | 37 µM | 0.54 µM | 59 µM
5 | Nc1nc(O)c2ncn([C@H]3CC[C@@H](CO)O3)c2n1 (single isomer, unassigned) | > 100 µM | 200 µM | > 10 µM | > 100 µM | > 100 µM | > 100 µM
6 | O=c1[nH]cnc2c1ncn2[C@H]1CC[C@@H](CO)O1 (single isomer, unassigned) [DIDANOSINE] | > 100 µM | > 200 µM | > 10 µM | – | – | > 100 µM
